According to ChEMBL document CHEMBL4190278, “Multipotent AChE and BACE-1 inhibitors for the treatment of Alzheimer's disease: Design, synthesis and bio-analysis of 7-amino-1,4-dihydro-2H-isoquilin-3-one derivates” (Eur J Med Chem, 2017):
Active and inactive are the calls of the source. No cut-off for these calls is given here.

Experiments:
Acetylcholinesterase [1] = biological target: T1, Acetylcholinesterase (Homo sapiens, UniProt P22303); experiment: Inhibition of human AChE using acetylthiocholine as substrate by Ellman's method
[2] = Metal chelating activity assessed as Cu2+-compound complex formation at 35 uM by UV-Visible spectrophotometric method
Acetylcholinesterase [3] = biological target: T1, Acetylcholinesterase; experiment: Potency index, ratio of donepezil IC50 to compound IC50 for human AChE

T1 sequence (P22303 whole entry): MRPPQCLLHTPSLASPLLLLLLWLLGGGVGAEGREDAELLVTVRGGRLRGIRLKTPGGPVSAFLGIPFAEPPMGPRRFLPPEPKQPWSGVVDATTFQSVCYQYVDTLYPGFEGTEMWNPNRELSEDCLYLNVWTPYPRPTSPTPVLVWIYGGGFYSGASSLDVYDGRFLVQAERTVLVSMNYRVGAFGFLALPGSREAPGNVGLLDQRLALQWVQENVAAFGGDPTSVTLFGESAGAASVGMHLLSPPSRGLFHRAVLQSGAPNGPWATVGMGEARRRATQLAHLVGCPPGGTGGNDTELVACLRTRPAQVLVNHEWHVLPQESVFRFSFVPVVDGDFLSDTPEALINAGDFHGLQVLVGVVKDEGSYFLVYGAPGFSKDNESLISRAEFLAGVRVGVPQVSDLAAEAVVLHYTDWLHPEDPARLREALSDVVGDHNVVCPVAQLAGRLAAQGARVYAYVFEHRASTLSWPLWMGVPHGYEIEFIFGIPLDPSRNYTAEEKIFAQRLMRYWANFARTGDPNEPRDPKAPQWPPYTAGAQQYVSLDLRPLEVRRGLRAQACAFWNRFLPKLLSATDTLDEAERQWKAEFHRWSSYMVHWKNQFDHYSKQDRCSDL

Structure (SMILES): Cc1cccc(C(=O)N2Cc3cc(NC(=O)c4cccc(Cl)c4)ccc3CC2=O)c1
- IC50 (Acetylcholinesterase [1]): 0.0144 nM

Structure (SMILES): COc1ccccc1C(=O)Nc1ccc2c(c1)CNC(=O)C2
- IC50 (Acetylcholinesterase [1]): 926 nM

Structure (SMILES): Nc1ccc2c(c1)CNC(=O)C2
- IC50 (Acetylcholinesterase [1]): 1360 nM

Structure (SMILES): O=C(Nc1ccc2c(c1)CN(C(=O)c1cccc(Cl)c1)C(=O)C2)c1cccc(Cl)c1
- IC50 (Acetylcholinesterase [1]): 0.0142 nM

Structure (SMILES): Cc1cccc(C(=O)N2Cc3cc(NC(=O)c4ccccc4)ccc3CC2=O)c1
- IC50 (Acetylcholinesterase [1]): 0.0262 nM

Structure (SMILES): Cc1cccc(C(=O)Nc2ccc3c(c2)CN(C(=O)c2cccc(Cl)c2)C(=O)C3)c1
- IC50 (Acetylcholinesterase [1]): 0.0209 nM

Structure (SMILES): Cc1cccc(C(=O)Nc2ccc3c(c2)CNC(=O)C3)c1
- IC50 (Acetylcholinesterase [1]): 791 nM

Structure (SMILES): COc1ccccc1C(=O)Nc1ccc2c(c1)CN(C(=O)c1cccc(C)c1)C(=O)C2
- IC50 (Acetylcholinesterase [1]): 0.0259 nM

Structure (SMILES): O=C(Nc1ccc2c(c1)CN(C(=O)c1cccc(Cl)c1)C(=O)C2)c1ccccc1
- IC50 (Acetylcholinesterase [1]): 0.0284 nM

Structure (SMILES): O=C1Cc2ccc(NC(=O)c3ccccc3)cc2CN1
- IC50 (Acetylcholinesterase [1]): 1320 nM

Structure (SMILES): Cc1cccc(C(=O)Nc2ccc3c(c2)CN(C(=O)c2cccc(C)c2)C(=O)C3)c1
- IC50 (Acetylcholinesterase [1]): 0.0135 nM

Structure (SMILES): COc1ccccc1C(=O)N1Cc2cc(NC(=O)c3ccccc3)ccc2CC1=O
- Activity [2]: Active
- Ratio IC50 (Acetylcholinesterase [3]): 181
- IC50 (Acetylcholinesterase [1]): 0.0189 nM

Structure (SMILES): COc1ccccc1C(=O)Nc1ccc2c(c1)CN(C(=O)c1ccccc1OC)C(=O)C2
- IC50 (Acetylcholinesterase [1]): 0.0216 nM

Structure (SMILES): O=C1Cc2ccc(NC(=O)c3cccc(Cl)c3)cc2CN1
- IC50 (Acetylcholinesterase [1]): 914 nM

Structure (SMILES): O=C(Nc1ccc2c(c1)CN(C(=O)c1ccccc1)C(=O)C2)c1ccccc1
- IC50 (Acetylcholinesterase [1]): 0.51 nM

Structure (SMILES): COc1ccccc1C(=O)N1Cc2cc(NC(=O)c3cccc(Cl)c3)ccc2CC1=O
- Ratio IC50 (Acetylcholinesterase [3]): 315
